Results taken from patent US9096534B2, “Pyridazinone compound and use thereof” (SUMITOMO CHEMICAL COMPANY, LIMITED, priority 2006, dated 2015).

Columns and labels:
[1] = tested on: Lolium multiflorum; test: Post-emergence treatment test in dry field; assay type: in vivo; conditions: 500 g/ha; foliar spray at first to second leaf stage; 20 days after treatment; 0 = no effect, 10 = complete death
Method: A plastic cup with a diameter of 8 cm and a depth of 6.5 cm was filled with commercially available soil, onto which seeds of Lolium multiflorum were sowed, covered with soil about 0.5 cm high and then grown in a greenhouse. When the plants were grown in first to second leaf stage, a prescribed dosage of a dilute liquid formulation comprising Compound I-a-1 was sprayed to whole plants uniformly. The dilute liquid formulation was prepared by dissolving a prescribed amount of Compound I-a-1 in a dimethylformamide solution (2%) of Tween 20 (polyoxyethylene sorbitan fatty acid ester, from MP Biomedicals, Inc.) and then diluting with deionized water. The plants after treatment with the liquid formulation were grown in a greenhouse and 20 days after the treatment, the efficacy of the compound against Lolium multiflorum was visually evaluated by rating in eleven levels from 0 to 10 (assigned as 0 for no effect and 10 for complete death while values falling in between these values were rated from 1 to 9 levels accordingly).
The other present compounds and Compound A described in J. Heterocycl. Chem., vol. 42, pp. 427-435 (2005) as a comparative example were similarly tested.

[2] = tested on: Apera spica-venti; test: Pre-emergence treatment test in dry field; assay type: in vivo; conditions: 500 g/ha; sprayed to soil surface after sowing; three weeks after treatment; 0 = no effect, 10 = complete death
Method: A plastic container (32 cm×22 cm×8 cm in height) was filled with soil sterilized by steam, onto which seeds of Apera spica-venti were sowed and covered with soil about 0.5 cm high. A prescribed dosage of a dilute liquid formulation comprising Compound I-a-1 was sprayed to the soil surface uniformly. The dilute liquid formulation was prepared by the method similar to that in Test example 1. The plants after treatment with the liquid formulation were grown in a greenhouse and three weeks after the treatment, the efficacy of the compound against Apera spica-venti was visually evaluated by rating in eleven levels from 0 to 10 similarly to Test example 1.
The other present compounds and Compound A as a comparative example were similarly tested.

What does the source list for `Cc1ccccc1-c1c(O)cnn(C)c1=O` [Compound A]?
efficacy against Lolium multiflorum, visually evaluated by rating in eleven levels from 0 to 10 [1]: 1; efficacy against Apera spica-venti, visually evaluated by rating in eleven levels from 0 to 10 [2]: 1
